Reference: publication PMC12680861, “Comparative analysis of LJ-4378 and tirzepatide in mouse models of obesity and weight regain” (Archives of Pharmacal Research, 2025)

Assays:
Type in all cases: in vivo, C57BL/6 J male mice
HFD-fed mice [1] = assay: Glucose tolerance test and fasting glucose in HFD-fed mice; settings: for fasting glucose levels: 12-h fast; for glucose tolerance (intraperitoneal glucose tolerance test): 14 days treatment
HFD-fed mice [2] = assay: Hepatic PKA signaling (immunoblot, liver); settings: P-HSL/HSL, P-CREB/CREB
Experimental: To evaluate the anti-obesity effect in vivo, mice fed either NCD or HFD for 10 weeks were subsequently treated for up to 4 weeks. To control for injection route-related variables, all mice received both intraperitoneal (I.P.) and subcutaneous (S.C.) injections. […]
For protein extraction, we utilized PRO-RERP Protein Extraction Solution (17081, iNtRON Biotechnology, Gyeonggi-do, Korea), supplemented with […] […] Protein concentrations were determined using the Pierce BCA protein assay Kit (#23227, Thermo Fisher, Waltham, Massachusetts, USA) by measuring absorbance at 562 nm with a MultiSkan GO spectrophotometer (Thermo Fisher). The quantified proteins were loaded and separated in 12% SDS-PAGE gels and transferred to polyvinylidene difluoride (PVDF) membranes (Bio-Rad, Hercules, CA, USA). […] After secondary antibody incubation, membranes were washed 3 times with TBST and detected with the Fusion Solo chemiluminescence imaging system (Vilber Lourmat, France). EvolutionCapt (version 17.03) software and the ImageJ (National Institutes of Health, Bethesda, MD, USA) program were used for analysis and to quantify the protein level.
Western blot analysis of P-HSL/HSL and P-CREB/CREB in liver. […] Statistical significance was determined using two-way ANOVA followed by Bonferroni post hoc test.

WR mice [3] = assay: Weight rebound (WR) model: body weight, food intake, adiposity after treatment cessation; settings: for body weight after treatment cessation: 4 weeks post-cessation on HFD; for food intake after withdrawal: 16 days after cessation; for body weight regained over 4 weeks as a percentage of the initial weight loss: WR groups, 4 weeks after 14-day treatment; for food intake during the 14-day treatment: measured every 2 days
Excerpt: (§1) To assess post-treatment weight rebound (WR), the mice previously treated with vehicle, LJ-4378, or TZP were maintained on HFD for an additional 4 weeks following treatment cessation. Treatment protocols for the WR groups were identical to those of the HFD groups. In total, nine experimental groups were established: NCD + CTL, NCD + LJ, NCD + TZP; HFD + CTL, HFD + LJ, HFD + TZP; and WR + CTL, WR + LJ, WR + TZP. The volume of oxygen consumed (VO2), carbon dioxide produced (VCO2), respiratory exchange ratio (RER), energy expenditure, activity, and food intake were measured with PhenoMaster (TSE Systems, Bad Homburg, Germany). Indirect calorimetry was performed under controlled conditions, with a stable ambient temperature of 24 °C and a 12 h light/12-h dark cycle. Mice fed HFD were administered vehicle, LJ-4378, or TZP for 14 days, and the last 2 days of treatment were conducted during indirect calorimetry analysis. The WR model was examined by indirect calorimetry after 2 and 4 weeks of the weight regaining phase.
Additionally, food consumption was measured every 2 days during the 14-day treatment period and for an additional 16 days post-administration.
Body composition and micro-CT analysis were performed after the treatment with vehicle, LJ-4378, or TZP for the indicated duration in HFD-fed mice and WR mice.
A nuclear magnetic resonance (NMR) technology system with EchoMRI-700 (Echo Medical Systems, […]) was used to analyze body composition.
To assess the abdominal fat volume, we employed the Quantum GX2 micro-CT imaging system (PerkinElmer, Waltham, MA, USA). Mice were anesthetized with isoflurane and positioned on the micro-CT bed for imaging of the abdominal region, defined from the proximal end of the L1 vertebra to the distal end of the L5 vertebra. Imaging was performed at 90 kV/88 µA with a field of view of 72 mm, a pixel size of 90 µm, and a 2-min acquisition time at standard resolution. Visceral, subcutaneous, and total abdominal fat volumes were quantified using AnalyzeDirect software (ver. 12.0, Overland Park, KS, USA).

WR mice [4] = assay: WR model: glucose metabolism, gWAT inflammation, hepatic steatosis at 4 weeks post-treatment; settings: for macrophage marker F4/80 and CLS formation in gWAT: 4 weeks of the weight regaining phase
Excerpt: as §1
For protein extraction, we utilized PRO-RERP Protein Extraction Solution (17081, iNtRON Biotechnology, Gyeonggi-do, Korea), supplemented with […] Protease Inhibitor (S8820, Sigma, St. Louis, MO, USA) and PhosSTOP phosphatase inhibitor (#4906837001, Roche, Basel, Switzerland). Protein concentrations were determined using the Pierce BCA protein assay Kit (#23227, Thermo Fisher, Waltham, Massachusetts, USA) by measuring absorbance at 562 nm with a MultiSkan GO spectrophotometer (Thermo Fisher). The quantified proteins were loaded and separated in 12% SDS-PAGE gels and transferred to polyvinylidene difluoride (PVDF) membranes (Bio-Rad, Hercules, CA, USA). Membranes were blocked in 5% bovine serum albumin or skim milk in Tris-buffered saline with 0.1% Tween 20 (TBST) for 1 h, followed by overnight incubation with primary antibodies. The next day, membranes were washed 3 times with TBST and incubated for 1 h with horseradish peroxidase (HRP)-conjugated secondary antibody: Goat anti-rabbit (1:3000, #31460, Thermo Fisher) and Goat anti-Mouse IgG (1:3000, 115–035-174, Jackson ImmunoResearch). After secondary antibody incubation, membranes were washed 3 times with TBST and detected with the Fusion Solo chemiluminescence imaging system (Vilber Lourmat, France). EvolutionCapt (version 17.03) software and the ImageJ (National Institutes of Health, Bethesda, MD, USA) program were used for analysis and to quantify the protein level.
RT-qPCR was conducted according to the method (Cho et al. [2022]). The tissue samples were lysed in TRIzol (#15596018, Thermo Fisher), and the total RNA was extracted. The extracted RNA was synthesized into cDNA using the cDNA Reverse Transcription Kit (Applied Biosystems, Waltham, MA, USA). mRNA levels were quantified using iQ SYBR Green Supermix on the CFX Connect Real-time system (Bio-rad). Relative expression levels of each gene were calculated using the […] method, with the reference housekeeping gene as follows: Peptidylprolyl isomerase A (Ppia) for adipose tissue and glyceraldehyde-3-phosphate dehydrogenase (Gapdh) for hypothalamus.
The glucose tolerance test was conducted on mice fasted for 12 h with ad libitum access to water. Mice were intraperitoneally injected with 20% D-( +)-glucose (2 g/kg body weight, #49139, Sigma), and blood glucose levels were measured at each time point using a Gluco Doctor Top meter and strip (Allmedicus, South Korea).
Adipose tissues were fixed in 10% formalin (HT50128, Sigma) for 2 days and made into paraffin slides. The deparaffinized sections were stained with ClearView Staining Hematoxylin (MA010081, BBC Biochemical, Mount Vernon, WA, USA) and Eosin Y Alcoholic (#3610, BBC Biochemical) solution. The crown-like structure formation of gonadal white adipose tissue (gWAT) and triglyceride (TG) accumulation in the liver are observed using hematoxylin and eosin staining on paraffin slides. The images were captured using Nikon Elements (NIS BR Analysis ver 5.10.00). […]

[5] = 4 weeks after treatment cessation

Compound	fasting glucose levels (HFD-fed mice [1])	glucose tolerance (intraperitoneal glucose tolerance test) (HFD-fed mice [1])	phosphorylation of downstream targets of PKA in the liver (HFD-fed mice [2])	gWAT and visceral abdominal fat, compared with the TZP group (WR mice [3]; [5])	whole-body fat ratio, LJ-4378 versus TZP (WR mice [3]; [5])	body weight after treatment cessation (WR mice [3])	food intake after withdrawal (WR mice [3])	body weight regained over 4 weeks as a percentage of the initial weight loss (WR mice [3]) [%]	food intake during the 14-day treatment (WR mice [3])	macrophage marker F4/80 and CLS formation in gWAT (WR mice [4])	fasting glucose levels, versus TZP-treated group (WR mice [4]; 4 weeks post-treatment, WR)	glucose clearance in glucose tolerance test, versus TZP-treated group (WR mice [4]; 4 weeks post-treatment, WR)	hepatic triglyceride (TG) deposition, versus TZP (WR mice [4]; 4 weeks post-treatment, WR)	Tnf-α and Arg1 mRNA levels in gWAT (WR mice [4]; after 4 weeks of WR)
CCCCC#Cc1nc(N)c2ncn([C@@H]3SC[C@@H](O)[C@H]3O)c2n1 [LJ-4378]	significantly lower	markedly enhanced	Neither LJ-4378 nor TZP altered the phosphorylation	reduction	significantly lower	maintained a relatively low body weight	did not alter food intake during or after treatment	88	did not alter food intake during or after treatment	maintained lower levels of macrophage accumulation	lower	enhanced glucose clearance	significantly lower	reduced Tnf-α and increased Arg1 mRNA levels were maintained
Tirzepatide [TZP, reference compound]	significantly lower	markedly enhanced	Neither LJ-4378 nor TZP altered the phosphorylation	–	–	rapid weight regain	sharp rebound in food consumption	127	significantly suppressed food intake	re-elevated	–	–	–	–
